According to patent US20170312274A1, “METHOD FOR TREATING A BRAIN TUMOUR” (The Hospital for Sick Children, priority 2014, published 2017):

Legend:
[1] = test system: GNS cells (GBM-derived neural stem cells); experiment: Secondary screen / dose response curve, Alamar Blue cell viability, five days; format: cell-based, human; conditions: for IC50: six GNS and four NS lines, IC50 based on approximate observed value, read-out: potency (IC50), growth inhibition of GNS cells
Procedure: (§1) GNS and NS lines were grown as an adherent monolayer culture in serum free medium as described previously (Pollard et al. 2009. Cell stem cell 4, 568-580). Primary tumour cells were freshly dissociated from the patient sample in artificial cerebrospinal fluid followed by treatment with an enzyme cocktail at 37° C. (Singh et al. 2003. Cancer research 63, 5821-5828). BJ fibroblast, Daoy and C8-D1A and U-2 0S (ATCC) were maintained in DMEM with 10% FBS.
(§2) Cells were seeded in laminin-coated 384 well plates at a density of 2000 cells per well. Compounds were added at a concentration of approximately 5 μM and incubated with cells for five days at 37° C. Cell viability was assessed by measuring Alamar Blue incorporation according to the manufacturer's protocol (Invitrogen). Percent growth inhibition was calculated relative to the control DMSO wells.
(§3) The potency and selectivity of hits from the primary screen was tested in 8-point two-fold dilution series ranging from 50 μM-0.39 μM concentrations with more lines of GNS, NS and fibroblast. Experimental conditions were the same as in primary screen. IC50 was calculated based on an approximate observed value. Fold selectivity was calculated as IC50 of BJ/IC50 of any GNS cells with lowest IC50.

DRD4 receptor = target: T1, DRD4 receptor (Homo sapiens, UniProt P21917); experiment: cAMP assay (ELISA-based) in GNS (G362) cells; format: cell-based; conditions: pretreatment 30 μM for 15 minutes, then forskolin 30 μM
T1 construct: endogenous in cells; host or cells: GNS line G362 (patient-derived glioblastoma neural stem cells)
T1 sequence (P21917 1-419): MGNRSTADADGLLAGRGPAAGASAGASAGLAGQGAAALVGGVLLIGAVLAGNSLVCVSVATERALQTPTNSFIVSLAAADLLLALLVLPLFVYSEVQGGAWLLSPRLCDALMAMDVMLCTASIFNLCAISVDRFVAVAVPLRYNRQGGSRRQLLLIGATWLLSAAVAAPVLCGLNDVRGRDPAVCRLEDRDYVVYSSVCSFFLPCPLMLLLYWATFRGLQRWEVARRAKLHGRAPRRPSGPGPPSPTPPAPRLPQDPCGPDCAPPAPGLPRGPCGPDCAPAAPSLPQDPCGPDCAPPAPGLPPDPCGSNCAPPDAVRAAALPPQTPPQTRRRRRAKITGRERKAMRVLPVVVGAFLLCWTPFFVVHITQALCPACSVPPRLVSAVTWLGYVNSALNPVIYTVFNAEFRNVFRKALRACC
Procedure: cAMP levels were measured with an ELISA-based cAMP assay kit purchased from Cell Signaling (#4439). GNS (G362) cells were seeded overnight in a 96 well plate and treated with forskolin (30 μM) for 15 minutes, or pretreated with DRD4 agonist A412997 (30 μM) for 15 minutes followed by forskolin treatment. Cells were lysed and processed as per manufacturer's protocol.

[2] = test system: freshly isolated primary GBM patient tumour cells; experiment: Primary in vitro limiting dilution assay (LDA), neurosphere formation; format: cell-based, human; conditions: L-741,742 10 μM, PNU 96415E 25 μM, 14 days, n=3 patient tumours
Procedure: (§4) Limiting dilution assay was performed as described previously (Tropepe et al., 1999. Developmental Biology 208, 166-188). Primary tumours were dissociated into single cell suspension and seeded into a 96-well plate with 10 point-2 fold serial dilution starting from 2000 cells to 4 cells/well, 6 wells for each dilution per plate. Each well was scored for neurosphere formation after 14 days of incubation. Percent of wells not containing spheres for each cell density was calculated and plotted against the cells per well, regression lines were plotted and x-intercept value at 0.37 was calculated at 95% confidence interval using Sigma Plot, which gives the number of cells required to form at least one neurosphere.

[3] = test system: GNS cells (G362) subcutaneous tumour; experiment: Patient derived subcutaneous xenograft (G362); format: in vivo, mouse; conditions: 20 mg/kg i.p., five days on and two days off, vs vehicle
Procedure: (§5) All mouse procedures were approved by the Hospital for Sick Children's Animal Care Committee. To validate the in vivo effect of L-741,742 and PNU 96415E, 2×10^5 GNS cells in 200 μl of PBS and matrigel (1:1) were injected subcutaneously into flanks of non-obese diabetic/severe combined immunodeficient (NOD/SCID) female mice. 8 mice (2 tumours per mouse except for one mouse in control group that has one tumour) were maintained for each group; control (15 tumours), L-741,742 (16 tumours) and PNU 96415E (16 tumours). L-741,742 and PNU 96415E were dissolved in 40% 2 hydroxy β-cyclodextrin (Sigma). Mice were treated three days after tumour implantation. Both L-741,742 and PNU 96415E were injected (20 mg/kg) i.p for 5 days on two days off until the end point. Control group was injected with 40% 2 hydroxy β-cyclodextrin. Tumour growth was monitored with microcalipers until tumour volume reached 17 mm in any one tumour from any group and all mice were sacrificed at the same end point. Dissected tumour volume was measured and mass was determined by weighing.

[4] = test system: colony forming cells of in vivo treated tumours; experiment: In vitro LDA of in vivo treated xenograft tumours; parameters: species or system mouse; conditions: tumours treated in vivo 20 mg/kg i.p.; vehicle treated tumours 1 in every 11 cells
Procedure: as §5, with “Both L-741,742 and PNU 96415E were injected (20 mg/kg) i.p for 5 days on two days off until the end point. Control group was injected with 40% 2 hydroxy β-cyclodextrin.” left out
as §4, with “Primary tumours were dissociated into single cell suspension and seeded into a 96-well plate with 10 point-2 fold serial dilution starting from 2000 cells to 4 cells/well, 6 wells for each dilution per plate.” left out

[5] = test system: GNS cells (G411 and G362); experiment: Autophagy markers (LC3B, p62) by western blot and immunofluorescence; format: cell-based, human; conditions: for levels of LC3B-II: L-741,742 10 μM, PNU 96415E 25 μM, G411 and G362; for LC3-II levels in the presence of chloroquine compared to control: chloroquine 30 μM, 48 h, G411; for autophagy substrate p62: treated GNS cells (G411)
Procedure: Western blots were performed using the following antibodies; anti-DRD4 antibody at 1:750 (Millipore# MABN125), anti-activated MAPK at 1:2500 (Promega#V803A), anti-ERK1/2 at 1:2000 (Promega#V114A), anti-βactin at 1:10,000 (Sigma), anti-LC3B at 1:1000 (Cell Signaling #3868), anti-p62 at 1:1000 (BD Bioscience), anti-LAMP1 at 1:2000 (Developmental Studies Hybridoma Bank), anti-mono and polyubiquitinylated protein conjugates (FK2) at 1:1000 (Enzo Life Sciences).

G411 and G362 cells = experiment: Cell cycle analysis by flow cytometry of DNA content; format: cell-based, human; conditions: L-741,742 10 μM, PNU 96415E 25 μM, time dependent
GNS cells = experiment: Caspase 3/7 activity and cleaved PARP in treated GNS cells; format: cell-based, human
[6] = test system: ERK1/2 phosphorylation in GNS (G362) cells; experiment: Phospho-kinase antibody array; format: cell-based, human; conditions: L-741,742 10 μM, PNU 25 μM, 24 h
Procedure: A human phospho-kinase antibody array was purchased from R&D systems (Cat# ARY003). This array contains capture antibodies for 43 kinases in duplicate on nitrocellulose membrane. GNS (G362) and NS (hf5205) lines were treated with L-741,742 (10 μM) and PNU 96415E (25 μM) along with a DMSO control for 24 h, and cells were then processed according to the manufacturer's protocol. Signal intensity was quantified using ImageJ.

G362 cells = experiment: Combination/synergy screen with temozolomide, alamar blue; format: cell-based, human; conditions: five days, COMPUSYN, CI <1 indicates synergism
Procedure: (§6) 2000 GNS cells (G362 and G481) were seeded in a 96 well plate and treated with a combination of 6-point 2-fold dose series of either L-741,742 (6.25 μM-0.39 μM) or PNU 96415E (25 μM-1.56 μM) with 10-point 2-fold dose series of temozolomide (100 μM-0.39 μM) in 60 point combination doses. The cells were incubated with a combination of the two drugs for five days and then checked for cell viability using the alamar blue assay. Combination index (CI) plot and CI value was calculated for 5 point dose series in each combination using the programme COMPUSYN. Data points taken for COMPUSYN analysis are temozolomide (100, 50, 25, 12.5 and 6.25 μM) in combination with either L-741,742 (6.25, 3.12, 1.56, 0.78 and 0.39 μM) or PNU 96415E (25, 12.5, 6.25, 3.12 and 1.56 μM).

G481 cells = experiment: as above; format: cell-based, human; conditions: five days, COMPUSYN, CI <1 indicates synergism
Procedure: as §6

[7] = test system: non-NS control cells (BJ fibroblast, Daoy, U-2 0S, C8-D1A); experiment: Dose response cell viability in non-NS control cell lines; format: cell-based; conditions: highest concentration tested 50 μM
Procedure: as §1, §2, §3

[8] = dose response series 0.39-50 μM

## Br.Br.CN(CCc1ccc(Cl)c(Cl)c1)[C@@H]1CCCC[C@@H]1N1CCCC1 (racemic) [cis-(±)-N-Methyl-N-[2-(3,4-dichlorophenyl)ethyl]-2-(1-pyrrolidinyl)cyclohexamine 2HBr]
[1]; dose response series 0.39-50 μM, five days
  Fold selectivity towards GNS and NS cells compared to fibroblasts (IC50 of BJ/IC50 of any of the NS or GNS lines that showed the lowest IC50): 8 fold

## Cc1cccc(NC(=O)CN2CCC(c3ccccn3)CC2)c1 [A412997]
DRD4 receptor
  block of forskolin-induced cAMP response: 38%

## Cc1c(C2CCN(CCc3ccccc3)CC2)noc1-c1ccc(Cl)cc1 [L-741,742]
[1]; [8]
  selectivity against GNS cells compared to NS cells: 8 fold
[1]
  IC50: 1.5 to 6.2 µM
[2]
  reduction in frequency of colony forming cells in comparison to the control: 40-83 fold
[3]
  average tumour weight at the end point reduced by: 40.9%
[4]
  colony forming cell frequency, 1 in every x cells: 76 cells
[5]
  levels of LC3B-II: increase
  LC3-II levels in the presence of chloroquine compared to control: did not increase
  autophagy substrate p62: accumulated
G411 and G362 cells
  effect on the cell cycle: G0/G1 arrest
GNS cells
  caspase 3/7 activity or cleaved PARP: no increase
[6]
  reduction of ERK1/2 phosphorylation compared to the untreated control: 40%
G362 cells
  lowest combination index (CI) value in combination with TMZ: 0.29
G481 cells
  lowest combination index (CI) value in combination with TMZ: 0.28

## Clc1ccc(N2CCN(Cc3c[nH]c4ncccc34)CC2)cc1 [L-745,870]
[1]
  IC50: 3.1 to 6.2 µM

## Cl.Cl.Fc1ccc(N2CCN(CCC3OCCc4ccccc43)CC2)cc1 (centres unmarked) [PNU 96415E]
[1]; [8]
  selectivity against GNS cells compared to NS cells: 8 fold
[1]
  IC50: 6.25 µM
[7]
  sensitivity of non-NS control cells: not sensitive even at the highest concentration tested
[2]
  reduction in frequency of colony forming cells in comparison to the control: 19-29 fold
[3]
  average tumour weight at the end point reduced by: 44.3%
[4]
  colony forming cell frequency, 1 in every x cells: 43 cells
[5]
  levels of LC3B-II: increase
  LC3-II levels in the presence of chloroquine compared to control: did not increase
  autophagy substrate p62: accumulated
G411 and G362 cells
  effect on the cell cycle: G0/G1 arrest
GNS cells
  caspase 3/7 activity or cleaved PARP: no increase
[6]
  reduction of ERK1/2 phosphorylation compared to the untreated control: 40%
G362 cells
  lowest combination index (CI) value in combination with TMZ: 0.56
G481 cells
  lowest combination index (CI) value in combination with TMZ: 0.32

## Ifenprodil tartrate
[1]; [8]
  selectivity against GNS cells compared to NS cells: 8 fold

## PD168568
[1]
  IC50: 25 to 50 µM
